US10544113B2 (priority 2016, dated 2020)
Where two headings read alike, the source gives them in different places.

Molecular target: mu-opioid receptor (MOR) (Homo sapiens (Human), UniProt P35372)
Experiment: cell-based
Settings: combined with a MOR antagonist; for AUC: AUC of [Ca2+]i fluorescence, CHO-K1/MOR/Gα15 cells
Description: In an exemplary in vitro screening method for identifying antagonist-to-agonist allosteric modifiers of a MOR, cells that express a MOR are treated with a test compound and a MOR antagonist in a cellular calcium fluorescent assay and fluorescence intensity is then measured to determine whether the MOR is activated. A test compound is identified as an antagonist-to-agonist allosteric modifier of the MOR if the MOR is activated.
EC50 herein refers to the concentration of a compound that induces a response halfway between the baseline and the maximum after a specified exposure time. AUC refers to the area under the response curve, an indication of the compound's capability of activating a MOR when combined with a MOR antagonist.
Human embryonic kidney 293 (HEK-293) cells constitutively expressing MOR (HEK-MOR) and DOR (HEK-DOR) (kindly provided by Dr. Ping-Yee Law, University of Minnesota, USA) were cultured in high-glucose Dulbecco's modified Eagle's medium (DMEM, GIBCO) supplemented with 400 μg/mL G418 (Sigma), 2 mM L-glutamine and P/S/F (100 units/mL penicillin, 100 μg/mL streptomycin, 10% fetal bovine serum). Chinese hamster ovary (CHO)-K1 cells, stably expressing hMOR and Gα15 (CHO-K1/MOR/Gα15), were cultured in F12 medium (GIBCO) supplemented with 10 μg/mL Hygromycin B (Invivogen), 20 μg/mL Zeocin (Invivogen) P/S/F (100 units/mL penicillin, 100 μg/mL streptomycin, 10% fetal bovine serum). The cultures were incubated at 37° C. in a humidified 5% CO2 incubator.
One day before the assay, CORNING® black with clear flat bottom 96-well assay plates were coated with a 0.1 mg/mL Poly-L-Lysine solution. CHO-K1/MOR/Gα15 cells were suspended in the F12 medium and plated at a density of ˜8×10^4 cells/well in 200 μL medium. Cells were incubated in a humidified atmosphere of 10% CO2 at 37° C. overnight so as to reach an 80-90% confluent cell monolayer before assay. At the day of assay, 150 μL medium/well was removed from plate. To each well, 50 μL FLIPR® calcium assay reagent dissolved in 1× assay buffer (HBSS: KCl 5 mM, KH2PO4 0.3 mM, NaCl 138 mM, NaHCO3 4 mM, Na2HPO4 0.3 mM, d-glucose 5.6 mM, with additional 20 mM HEPES and 13 mM CaCl2, pH 7.4), with 2.5 mM probenecid was added and the plate was incubated at 37° C. for 1 h. Compounds and other reagents were dissolved in the assay buffer. Using a FlexStationIII (Molecular Devices Corp.), the [Ca^2+]i fluorescence increases after robotic injections of compounds or other reagents were monitored every 1.52 s interval with excitation wavelength at 485 nm and with emission wavelength at 525 nm. The [Ca^2+]i fluorescence was measured up to 90 s after agonist injection.
A CHO-K1 cell line, expressing a MOR and Gα15 (GenScript), was used to set up a sensitive high-throughput screen (HTS) system. In a FLIPR® calcium assay using CHO-K1/MOR/Gα15 cells, activation of MOR elicits an intracellular calcium release leading to an increase in the relative fluorescence units (FRU). […] The HTS was performed in the absence or presence of an opioid antagonist, naloxone (25 nM), to identify antagonist to agonist allosteric modifiers (AAM).
A CHO-K1 cell line, expressing a MOR and Gα15 (GenScript), was used to set up a sensitive assay system for detecting μ-opioid receptor activation. […] The assay was performed in the presence of an opioid antagonist, i.e., naloxone (25 nM), naltrexone (20 nM), samidorphan (10 nM), naloxonazine dihydrochloride (20 nM), β-funaltrexamine hydrochloride (20 nM), cyprodime hydrochloride (500 nM), or nalmefene (20 nM), in combination with compound 58, an antagonist to agonist allosteric modifier (AAM), to identify activation of the μ-opioid receptor.

Sequence of mu-opioid receptor (MOR) (P35372 whole entry): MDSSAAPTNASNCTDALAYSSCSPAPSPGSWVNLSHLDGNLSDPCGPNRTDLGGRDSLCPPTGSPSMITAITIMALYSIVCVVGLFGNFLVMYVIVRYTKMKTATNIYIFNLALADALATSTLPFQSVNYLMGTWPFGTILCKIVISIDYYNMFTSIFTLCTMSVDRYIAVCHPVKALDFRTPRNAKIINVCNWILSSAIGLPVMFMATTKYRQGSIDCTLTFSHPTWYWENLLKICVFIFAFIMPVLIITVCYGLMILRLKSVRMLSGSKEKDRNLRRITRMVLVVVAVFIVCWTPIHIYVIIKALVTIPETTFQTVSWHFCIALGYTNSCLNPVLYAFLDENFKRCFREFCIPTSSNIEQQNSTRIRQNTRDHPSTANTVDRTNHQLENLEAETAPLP

SMILES | FLIPR Ca^2+ AUC | EC50 (read-out: FLIPR Ca^2+ EC50) | AUC | EC50 (EC50, CHO-K1/MOR/Gα15 cells)
Cc1cc(C(=O)OC(C)(C)C)ccc1N1C(=O)CSC1c1ccc(F)cc1 (centres unmarked) [Example 235] | 15203 | 6.8 µM |  | 
Cc1cc(C(=O)OC2(C)CC2)ccc1N1C(=O)CSC1c1ccc(F)cc1 (centres unmarked) [Example 236] | 13348 | 4.7 µM |  | 
Cc1cc(C(=O)OCCC2CC2)ccc1N1C(=O)CSC1c1ccc(F)cc1 (centres unmarked) [Example 238] | 15409 | 12.3 µM | more than 5000 | 
Cc1cc(C(=O)OCC2CCCC2)ccc1N1C(=O)CSC1c1ccc(F)cc1 (centres unmarked) [Example 239] | 4342 | 9.4 µM |  | < 10 µM
Cc1cc(C(=O)OCCOCc2ccccc2)ccc1N1C(=O)CSC1c1ccc(F)cc1 (centres unmarked) [Example 258] | 6353 | 3.3 µM | more than 5000 | < 10 µM
Cc1cc(C(=O)OCc2cccnc2)ccc1N1C(=O)CSC1c1ccc(F)cc1 (centres unmarked) [Example 261] | 11434 | 2.9 µM | more than 5000 | < 10 µM
Cc1cc(C(=O)OCCCc2ccccn2)ccc1N1C(=O)CSC1c1ccc(F)cc1 (centres unmarked) [Example 263] | 14918 | 9.2 µM | more than 5000 | < 10 µM
Cc1cc(C(=O)OCCc2scnc2C)ccc1N1C(=O)CSC1c1ccc(F)cc1 (centres unmarked) [Example 266] | 12653 | 4.6 µM |  | 
COCCCOC(=O)c1ccc(N2C(=O)CSC2c2ccc(F)cc2)c(C)c1 (centres unmarked) [Example 267] | 15960 | 6.4 µM |  | 
CC(=O)COC(=O)c1ccc(N2C(=O)CSC2c2ccc(F)cc2)c(C)c1 (centres unmarked) [Example 268] | 12787 | 3.8 µM |  | 
Cc1cc(C(=O)OCCC#N)ccc1N1C(=O)CSC1c1ccc(F)cc1 (centres unmarked) [Example 269] | 14183 | 12.3 µM |  | 
CSCCOC(=O)c1ccc(N2C(=O)CSC2c2ccc(F)cc2)c(C)c1 (centres unmarked) [Example 270] |  |  |  | < 10 µM
CCSCCOC(=O)c1ccc(N2C(=O)CSC2c2ccc(F)cc2)c(C)c1 (centres unmarked) [Example 271] | 11997 | 14 µM |  | 
CC(=O)OCCOC(=O)c1ccc(N2C(=O)CSC2c2ccc(F)cc2)c(C)c1 (centres unmarked) [Example 272] |  |  |  | < 10 µM
Cc1cc(C(=O)OCOC(=O)C(C)(C)C)ccc1N1C(=O)CSC1c1ccc(F)cc1 (centres unmarked) [Example 273] | 12265 | 5.7 µM |  | < 10 µM
Cc1cc(C(=O)OCC2CCCO2)ccc1N1C(=O)CSC1c1ccc(F)cc1 (centres unmarked) [Example 275] | 11236 | 26.9 µM |  | 
Cc1cc(C(=O)OCC2COC(C)(C)O2)ccc1N1C(=O)CSC1c1ccc(F)cc1 (centres unmarked) [Example 276] | 15090 | 6.3 µM |  | < 10 µM
Cc1cc(C(=O)OC2COC(C)(C)OC2)ccc1N1C(=O)CSC1c1ccc(F)cc1 (centres unmarked) [Example 277] | 14634 | 6.1 µM |  | < 10 µM
COCC(C)OC(=O)c1ccc(N2C(=O)CSC2c2ccc(F)cc2)c(C)c1 (centres unmarked) [Example 279] | 10883 | 4.1 µM |  | 
CCOCCOC(=O)c1ccc(N2C(=O)CSC2c2ccc(F)cc2)c(C)c1 (centres unmarked) [Example 281] | 9792 | 4.5 µM |  | 
Cc1cc(C(=O)OCC(F)(F)F)ccc1N1C(=O)CSC1c1ccc(F)cc1 (centres unmarked) [Example 286] | 13001 | 9.2 µM | more than 5000 | < 10 µM
Cc1cc(C(=O)OCCN(C)C)ccc1N1C(=O)CSC1c1ccc(F)cc1 (centres unmarked) [Example 290] | 14778 | 10 µM |  | 
Cc1cc(C(=O)OCCCN(C)C)ccc1N1C(=O)CSC1c1ccc(F)cc1 (centres unmarked) [Example 291] | 8913 | 1.9 µM |  | 

SMILES | FLIPR Ca^2+ AUC | EC50 (read-out: FLIPR Ca^2+ EC50) | AUC | EC50 (EC50, CHO-K1/MOR/Gα15 cells)
CCN(CC)CCOC(=O)c1ccc(N2C(=O)CSC2c2ccc(F)cc2)c(C)c1 (centres unmarked) [Example 292] | 10056 | 3.1 µM |  | 
Cc1cc(C(=O)OCCN2CCCCC2)ccc1N1C(=O)CSC1c1ccc(F)cc1 (centres unmarked) [Example 295] | 10426 | 2.8 µM |  | 
Cc1cc(C(=O)OCCN2CCOCC2)ccc1N1C(=O)CSC1c1ccc(F)cc1 (centres unmarked) [Example 296] | 14052 | 2.3 µM |  | 
Cc1cc(C(=O)OCCCN2CCOCC2)ccc1N1C(=O)CSC1c1ccc(F)cc1 (centres unmarked) [Example 297] | 13753 | 8.1 µM |  | 
Cc1cc(C(=O)OCCCN2CCCCC2)ccc1N1C(=O)CSC1c1ccc(F)cc1 (centres unmarked) [Example 298] | 9283 | 1.7 µM |  | 
CC(=O)N1CCC(CCOC(=O)c2ccc(N3C(=O)CSC3c3ccc(F)cc3)c(C)c2)CC1 (centres unmarked) [Example 299] | 10053 | 5 µM |  | 
Cc1cc(C(=O)OC2CCN(C)C2)ccc1N1C(=O)CSC1c1ccc(F)cc1 (centres unmarked) [Example 300] | 12918 | 1.6 µM |  | 
Cc1cc(C(=O)OC2CCN(C)CC2)ccc1N1C(=O)CSC1c1ccc(F)cc1 (centres unmarked) [Example 301] | 9593 | 0.9 µM |  | 
Cc1cc(C(=O)OCCOCCN)ccc1N1C(=O)CSC1c1ccc(F)cc1 (centres unmarked) [Example 303] | 9530 | 7 µM | more than 5000 | < 10 µM
Cc1cc(C(=O)OCCOCCN(C)C)ccc1N1C(=O)CSC1c1ccc(F)cc1 (centres unmarked) [Example 306] | 7531 | 6.2 µM | more than 5000 | < 10 µM
Cc1cc(C(=O)OCCOCCN2CCCC2)ccc1N1C(=O)CSC1c1ccc(F)cc1 (centres unmarked) [Example 307] | 14731 | 8.7 µM | more than 5000 | < 10 µM
Cc1cc(C(=O)OCc2oc(=O)oc2C)ccc1N1C(=O)CSC1c1ccc(F)cc1 (centres unmarked) [Example 311] |  |  |  | < 10 µM
CCOC(=O)OC(C)OC(=O)c1ccc(N2C(=O)CSC2c2ccc(F)cc2)c(C)c1 (centres unmarked) [Example 313, 3-(1,5-Dimethyl-3-oxo-2-phenyl-2,3-dihydro-1H-pyrazol-4-yl)-2-(4-(methylthi)phenyl)thiazolidin-4-one] |  |  |  | < 10 µM
Cc1cc(C(=O)OCOC(=O)OC(C)C)ccc1N1C(=O)CSC1c1ccc(F)cc1 (centres unmarked) [Example 314] |  |  |  | < 10 µM
Cc1cc(C(=O)OC(C)CNC(=O)c2cccnc2)ccc1N1C(=O)CSC1c1ccc(F)cc1 (centres unmarked) [Example 326] |  |  |  | < 10 µM
Cc1cc(C(=O)OC(C)CNC(=O)c2ccc[n+](C)c2)ccc1N1C(=O)CSC1c1ccc(F)cc1 (centres unmarked) [Example 328] |  | 11.8 µM |  | 
Cc1cc(C(N)=O)ccc1N1C(=O)CSC1c1ccc(F)cc1 (centres unmarked) [Example 329] | 13749 | 1.7 µM | more than 5000 | < 10 µM
CNC(=O)c1ccc(N2C(=O)CSC2c2ccc(F)cc2)c(C)c1 (centres unmarked) [Example 331] |  |  |  | < 10 µM
Cc1cc(C(=O)N(C)C)ccc1N1C(=O)CSC1c1ccc(F)cc1 (centres unmarked) [Example 332] |  |  |  | < 10 µM
CCCNC(=O)c1ccc(N2C(=O)CSC2c2ccc(F)cc2)c(C)c1 (centres unmarked) [Example 334] | 9672 | 5.7 µM |  | < 10 µM
CCNC(=O)c1ccc(N2C(=O)CSC2c2ccc(F)cc2)c(C)c1 (centres unmarked) [Example 335] | 11180 | 4.2 µM |  | < 10 µM
Cc1cc(C(=O)NC2CC2)ccc1N1C(=O)CSC1c1ccc(F)cc1 (centres unmarked) [Example 336] | 11347 | 11 µM |  | 
